One data set deals with rat testis proteome. In kind it is binding.
Data set [1] addresses T1, cALDH-I (Rattus norvegicus, UniProt P51647).
T1 construct: made in house; host or cells: E. coli BL-21
T1 sequence (P51647 1-501): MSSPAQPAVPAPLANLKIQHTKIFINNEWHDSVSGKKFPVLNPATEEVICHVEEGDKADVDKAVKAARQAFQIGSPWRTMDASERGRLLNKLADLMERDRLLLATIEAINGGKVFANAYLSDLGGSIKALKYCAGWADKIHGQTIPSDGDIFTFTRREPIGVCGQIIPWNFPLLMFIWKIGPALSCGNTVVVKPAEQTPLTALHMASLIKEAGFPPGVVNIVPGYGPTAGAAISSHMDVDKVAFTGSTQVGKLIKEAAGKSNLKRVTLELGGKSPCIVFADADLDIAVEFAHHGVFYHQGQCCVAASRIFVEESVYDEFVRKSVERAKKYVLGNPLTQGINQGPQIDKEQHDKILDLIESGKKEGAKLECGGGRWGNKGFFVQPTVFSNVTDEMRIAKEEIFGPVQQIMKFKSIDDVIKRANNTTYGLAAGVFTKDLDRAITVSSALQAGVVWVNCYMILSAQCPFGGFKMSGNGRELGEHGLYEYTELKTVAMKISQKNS
As to the kind of experiment: cALDH-I enzyme assay and inhibition studies. In kind it is biochemical. How it is done:
(§1) cALDH-I activity was determined at 25° C. in Tris buffer (20 mM Tris-HCl, pH 8, 100 mM NaCl). Purified cALDH-I (0.2 μM) was preincubated with 15 (2.5 μM-15 μM) in DMSO (30 μL, 3% total incubation vol) in a volume of 950 μL for 5 to 45 min. After preincubation of the enzyme with inhibitor, remaining catalytic activity was measured by adding NAD^+ (500 μM final concentration) and propionaldehyde (1 mM final concentration) in 50 μL of buffer. Production of NADH from the oxidation of propionaldehyde was monitored by measuring the change in absorbance at 340 nm for 2 min. In substrate competition assays, purified cALDH-I (0.2 μM) was preincubated with either NAD^+ (50 μM) or propionaldehyde (25 μM) and 10 μM of 15 for 10 minutes at 25° C. in a volume of 950 μL. Remaining catalytic activity was monitored as described above.

For data set [2] the following is noted: pH 8.
In data set [3] the target is T1, cALDH-I. In kind it is binding.
Substrate in data set [4]: CCC=O
The data set can be described thus: cALDH-I enzyme assay and inhibition studies. In kind it is biochemical, rat. Conditions: other: His-tagged recombinant cALDH-I; pH 8.0; 25.0 °C. How it is done: as §1

For another data set, the system named is trypsin. In kind it is binding.
The next data set concerns serine hydrolases. In kind it is binding, rat.

Consider `O=C(CCCCCCCCCOS(=O)(=O)c1cccs1)NCCCCCNC(=O)CCCCC1SCC2NC(=O)NC21` (stereo not drawn) [Sulfonate 11], for which the “specific (heat-sensitive) proteome reactivity” value in the data set with rat testis proteome is listed as “reacted specifically with a 55 kDa protein, as well as two additional proteins”. Regarding `CCCCCCCCOS(=O)(=O)c1ccccn1` [Sulfonate 15, 1-(2-Pyridylsulfonyl)oxo-octane], on cALDH-I [1], the “average Kobs/[I]” value is on record as “(9.7+1.8)×10^3 M^−1min^−1”. Besides, the “stability to assay conditions” value in data set [2] is “stable to the assay conditions employed”. For `O=C(CCCCCCCCCOS(=O)(=O)c1cccc2cccnc12)NCCCCCNC(=O)CCCCC1SCC2NC(=O)NC21` (stereo not drawn) [Sulfonate 9, 10-((8-Quinolinesulfonyl)oxo)-N-biotinamidopentyldecanamide], in the data set with rat testis proteome, the “specific (heat-sensitive) proteome reactivity” value is given as “reacted specifically with a 55 kDa protein, as well as two additional proteins”. Regarding `CS(=O)(=O)OCCCCCCCCCC(=O)NCCCCCNC(=O)CCCCC1SCC2NC(=O)NC21` (stereo not drawn) [Sulfonate 5, 10-((Methylsulfonyl)oxo)-N-biotinamidopentyldecanamide], the “nonspecific (heat-insensitive) proteome reactivity” value in the data set on rat testis proteome is recorded as “significant additional reactivity with the preheated proteome”. Still for that read-out and setting: next, `COc1ccc(S(=O)(=O)OCCCCCCCCCC(=O)NCCCCCNC(=O)CCCCC2SCC3NC(=O)NC32)cc1` (stereo not drawn) [Sulfonate 4, 10-((4-Methoxybenzenesulfonyl)oxo)-N-biotinamidopentyldecanamide]: “significant additional reactivity with the preheated proteome”. Turning to `O=C(CCCCCCCCCOS(=O)(=O)c1ccccn1)NCCCCCNC(=O)CCCC[C@@H]1SC[C@@H]2NC(=O)N[C@@H]21` [Sulfonate 1, 10-((2-Pyridylsulfonyl)oxo)-N-biotinamidopentyldecanamide], at cALDH-I [3], the “labeling of 55-kDa protein in cALDH-I-transfected cells” value was “labeled strongly”.

For `CCCCCCCCS(=O)(=O)OCCCCCCCCCC(=O)NCCCCCNC(=O)CCCC[C@@H]1SC[C@@H]2NC(=O)N[C@@H]21` [Sulfonate 7, 10-((Octylsulfonyl)oxo)-N-biotinamidopentyldecanamide], in the data set on rat testis proteome, the “specific (heat-sensitive) proteome reactivity” value is reported as “All sulfonates except the octylsulfonate 7 labeled at least one member of the testis proteome in a heat-sensitive manner”. On the same count and under the same terms, next, `O=C(CCCCCCCCCOS(=O)(=O)c1ccc([N+](=O)[O-])cc1)NCCCCCNC(=O)CCCCC1SCC2NC(=O)NC21` (stereo not drawn) [Sulfonate 8, 10-((4-Nitrobenzenesulfonyl)oxo)-N-biotinamidopentyldecanamide]: “reacted specifically with a 55 kDa protein, as well as two additional proteins”.

B1: cALDH-I (Rattus norvegicus) (protein)
chain: MSSPAQPAVPAPLANLKIQHTKIFINNEWHDSVSGKKFPVLNPATEEVICHVEEGDKADVDKAVKAARQAFQIGSPWRTMDASERGRLLNKLADLMERDRLLLATIEAINGGKVFANAYLSDLGGSIKALKYCAGWADKIHGQTIPSDGDIFTFTRREPIGVCGQIIPWNFPLLMFIWKIGPALSCGNTVVVKPAEQTPLTALHMASLIKEAGFPPGVVNIVPGYGPTAGAAISSHMDVDKVAFTGSTQVGKLIKEAAGKSNLKRVTLELGGKSPCIVFADADLDIAVEFAHHGVFYHQGQCCVAASRIFVEESVYDEFVRKSVERAKKYVLGNPLTQGINQGPQIDKEQHDKILDLIESGKKEGAKLECGGGRWGNKGFFVQPTVFSNVTDEMRIAKEEIFGPVQQIMKFKSIDDVIKRANNTTYGLAAGVFTKDLDRAITVSSALQAGVVWVNCYMILSAQCPFGGFKMSGNGRELGEHGLYEYTELKTVAMKISQKNS
notes: made in house; host or cells: E. coli BL-21
Take B1: in data set [4], the Km is 4.2 µM.

B2: STI: Kunitz-type serine protease inhibitor, soybean trypsin inhibitor (protein, UniProt P01070 25-205, looked up)
Trypsin inhibitor A: DFVLDNEGNPLENGGTYYILSDITAFGGIRAAPTGNERCPLTVVQSRNELDKGIGTIISSPYRIRFIAEGHPLSLKFDSFAVIMLCVGIPTEWSVVEDLPEGPAVKIGENKDAMDGWFRLERVSDDEFNNYKLVFCPQQAEDDKCGDIGISIDHDDGTRRLVVSKNKPLVVQFQKLDKESL
B2: in the data set on trypsin, the “FP-biotin labeling of trypsin preincubated with STI” value was “did not label”. The “FP-biotin labeling intensities in STI-treated sample” value with serine hydrolases is “several, but not all FP-biotin reactive proteins showed significantly lower labeling intensities”.

The values are drawn from patent publication US6872574B2, “Proteomic analysis” (The Scripps Research Institute, priority 2000, dated 2005).
